This note sets out measurements from article PMC5130005, “Indolin-2-one compounds targeting thioredoxin reductase as potential anticancer drug leads” (Oncotarget, 2016).

For one data set, the system named is MCF-7 cells. Put plainly: MTT cell viability assay, MCF-7 cells. In kind it is cell-based. To be noted: Homo sapiens, MCF7, 72 h, mean ± SD of 3 experiments; for GI50: read-out: GI50 (50% growth inhibition concentration), MCF-7 cells; for CC50: read-out: LC50 (50% lethal concentration), MCF-7 cells. As to the method: (§1) HCT 116 and MCF-7 cells were seeded in 96-well plates at a density of 1 × 10^4 cells/well and allowed to grow for 20-24 h before addition of test compounds. DMSO stocks of indolin-2-one compounds were serially diluted in medium each time an assay was performed. Cell viability was determined at the time of compound addition (time 0) and after 72 h of compound treatment by reduction of 3-(4,5-dimethylthiazol-2-yl)-2,5-diphenyltetrazolium bromide (MTT) by dehydrogenases in viable cells. MTT was added into each well (final concentration 400 μg/ml) and the plates were incubated for 4 h at 37°C. The supernatants were aspirated and upon solubilization of the formed formazan crystals in DMSO:glycine buffer pH 10.5 (ratio 4:1), absorbance at 550 nm was measured. 50% growth inhibition concentrations (GI50) and 50% lethal concentrations (LC50) values were calculated.

The subject of a further data set is HCT 116 cells. As to the kind of experiment: MTT cell viability assay, HCT 116 cells. The settings on record: Homo sapiens, 72 h, mean ± SD of 3 experiments; for GI50: read-out: GI50 (50% growth inhibition concentration), HCT 116 cells. In kind it is cell-based. On the procedure:
as §1
Background: Formazan colour is commonly taken as a measure of viable cells.

Data set [1] has as its target T1, recombinant rat TrxR (Rattus norvegicus, UniProt O89049).
T1 construct: made in house
T1 sequence (O89049 1-499): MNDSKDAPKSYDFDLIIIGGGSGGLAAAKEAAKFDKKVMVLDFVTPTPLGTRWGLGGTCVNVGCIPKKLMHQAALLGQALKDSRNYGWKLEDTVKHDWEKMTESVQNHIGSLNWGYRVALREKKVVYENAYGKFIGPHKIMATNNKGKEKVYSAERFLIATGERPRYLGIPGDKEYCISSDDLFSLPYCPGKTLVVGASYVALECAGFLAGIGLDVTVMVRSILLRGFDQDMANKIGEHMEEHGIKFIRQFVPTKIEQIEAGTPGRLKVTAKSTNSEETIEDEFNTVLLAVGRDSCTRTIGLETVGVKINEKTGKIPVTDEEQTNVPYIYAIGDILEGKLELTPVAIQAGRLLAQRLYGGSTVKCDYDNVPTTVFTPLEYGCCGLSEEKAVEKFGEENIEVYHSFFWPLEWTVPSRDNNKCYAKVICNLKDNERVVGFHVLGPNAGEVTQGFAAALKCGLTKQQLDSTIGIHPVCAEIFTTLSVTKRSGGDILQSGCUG
As to the kind of experiment: in vitro TrxR DTNB reduction assay. In kind it is biochemical. To be noted: 30 min incubation, 100 nM recombinant rat TrxR, 200 μM NADPH, read-out: TrxR inhibition IC50. On the procedure:
In a volume of 100 μl of 50 mM Tris-HCl pH 7.5, 2 mM EDTA buffer (TE buffer), compounds of concentrations 1-100 μM were incubated with 100 nM recombinant rat TrxR and 200 μM NADPH at room temperature in 96-well plates for 30 and 60 min. The incubation was terminated by addition of 100 μl per well of 10 mM DTNB, 200 μM NADPH solution in TE buffer and immediately followed by measurement of linear increase of absorbance at 412 nm for the initial 2 min using the VersaMax microplate reader (Molecular Devices). The results were expressed as % of TrxR activity of drug-treated sample over that of DMSO control. The 50% inhibition concentration (IC50) values were calculated.

For data set [2], the target named is T1, recombinant rat TrxR. As to the kind of experiment: NADPH oxidase activity of recombinant rat TrxR (substrate test). The class given is biochemical. To be noted: 8 μM juglone, 15 nM TrxR, 250 μM NADPH, 20 min. As to the method:
In a volume of 198 μl of 15 nM recombinant rat TrxR and 250 μM NADPH in TE buffer, 2 μl of diluted DMSO stocks of juglone and compounds 4 and 5 was added to final concentrations of 8 μM (for julgone) and 100 μM (for compounds 4 and 5). The consumption of NADPH was immediately monitored at 340 nm for 20 min using the VersaMax microplate reader. The linear decrease in NADPH absorbance was used for calculating NADPH consumption and expressed as % of activity of drug-treated sample over that of DMSO-treated sample.

As a reminder, the IC50 is the midpoint of a concentration-inhibition curve.

`Cc1ccccc1C(=O)/C=C1/C(=O)N(C)c2ccccc21` [Compound 7]: in the data set with MCF-7 cells, the GI50 turned out to be 17.3 ± 4.6 µM and the CC50 stood at 27.9 ± 1.5 µM. In the data set on HCT 116 cells, the LC50 (50% lethal concentration) amounted to 27.8 ± 0.8 µM and the GI50 came out at 12.4 ± 2.1 µM. The IC50 at recombinant rat TrxR [1] worked out at 19 ± 2.4 µM.

For the compound `CCCCc1ccc(C(=O)/C=C2/C(=O)N(C)c3ccccc32)cc1` [Compound 12], in the data set on MCF-7 cells, the GI50 was determined as 16.5 ± 4 µM and the CC50 was 81.2 ± 9.7 µM. Besides, in the data set on HCT 116 cells, the LC50 (50% lethal concentration) was 26.7 ± 0.8 µM and the GI50 turned out to be 13.5 ± 2.6 µM. In addition, the IC50 on recombinant rat TrxR [1] was over 100 µM.

As to `Cc1cccc(C(=O)/C=C2/C(=O)N(C)c3ccccc32)c1` [Compound 8], in the data set on MCF-7 cells, the GI50 turned out to be 14 ± 0.6 µM and the CC50 is 27.9 ± 0.6 µM. In addition, in the data set with HCT 116 cells, the LC50 (50% lethal concentration) amounted to 28 ± 1 µM and the GI50 worked out at 10.4 ± 2.6 µM. For the same compound, the IC50 at recombinant rat TrxR [1] was found to be 22.5 ± 0.4 µM.

Take `CCN1C(=O)/C(=C/C(C)=O)c2ccccc21` [Compound 2]: in the data set with MCF-7 cells, the GI50 stood at 7.9 ± 1.7 µM and the CC50 amounted to 25 ± 1.6 µM. For the same compound, in the data set with HCT 116 cells, the LC50 (50% lethal concentration) was determined as 9.7 ± 0.1 µM and the GI50 was found to be 4.2 ± 0.5 µM. Moreover, on recombinant rat TrxR [1], the IC50 is 10.2 ± 1.8 µM.

In the case of `CCc1ccc(C(=O)/C=C2/C(=O)N(C)c3ccccc32)cc1` [Compound 10], in the data set with MCF-7 cells, the GI50 was 10.4 ± 0.6 µM and the CC50 was 30.4 ± 6.2 µM. Further, in the data set on HCT 116 cells, the LC50 (50% lethal concentration) was 28.8 ± 1.1 µM and the GI50 is 11.9 ± 1.1 µM. For the same compound, the IC50 on recombinant rat TrxR [1] is 19.1 ± 0.4 µM.

With `CN1C(=O)/C(=C/C(=O)c2ccccc2C(F)(F)F)c2ccccc21` [Compound 16], in the data set with MCF-7 cells, the GI50 was 15.8 ± 1 µM and the CC50 was found to be 27.7 ± 1.9 µM. In the data set with HCT 116 cells, the LC50 (50% lethal concentration) amounted to 27.7 ± 3.1 µM and the GI50 was 19.5 ± 1.3 µM. In addition, on recombinant rat TrxR [1], the IC50 worked out at 28.9 ± 0.2 µM.

Turning to `CN1C(=O)/C(=C\C(=O)c2ccc(Cl)cc2)c2ccccc21` [Compound 20], in the data set with MCF-7 cells, the GI50 worked out at 20.4 ± 3.5 µM and the CC50 was found to be 91.7 ± 2 µM. Further, in the data set with HCT 116 cells, the LC50 (50% lethal concentration) was 28.7 ± 2.4 µM and the GI50 stood at 16.1 ± 2.4 µM. At recombinant rat TrxR [1], the IC50 worked out at 15.9 ± 2.9 µM.

Turning to `CN1C(=O)/C(=C/C(=O)c2cccc(Cl)c2)c2ccccc21` [Compound 14], in the data set on MCF-7 cells, the GI50 is 23 ± 4.5 µM and the CC50 was found to be 84.3 ± 5.8 µM. Further, in the data set with HCT 116 cells, the LC50 (50% lethal concentration) was found to be 26.9 ± 1.5 µM and the GI50 came out at 15.6 ± 1.1 µM. For the same compound, at recombinant rat TrxR [1], the IC50 came out at 18.4 ± 2.2 µM.

As for `O=C1C=CC(=O)c2c(O)cccc21` [juglone], the “rate of NADPH consumption of recombinant TrxR” value on recombinant rat TrxR [2] is “markedly increased”.

On to `CC(=O)/C=C1/C(=O)N(C(C)C)c2ccccc21` [Compound 3], for which, in the data set on MCF-7 cells, the GI50 stood at 7.1 ± 0.6 µM and the CC50 was found to be 22.4 ± 0.6 µM. In addition, in the data set with HCT 116 cells, the LC50 (50% lethal concentration) came to 9.8 ± 0.1 µM and the GI50 was 5.3 ± 0.1 µM. Moreover, at recombinant rat TrxR [1], the IC50 came out at 15 ± 1.4 µM.

Consider `CC(C)c1ccc(C(=O)/C=C2/C(=O)N(C)c3ccccc32)cc1` [Compound 11], for which, in the data set with MCF-7 cells, the GI50 was found to be 10.5 ± 1.7 µM and the CC50 was found to be 27 ± 0.4 µM. Besides, in the data set with HCT 116 cells, the LC50 (50% lethal concentration) came out at 26.7 ± 1.7 µM and the GI50 amounted to 14.4 ± 1.8 µM. In addition, on recombinant rat TrxR [1], the IC50 worked out at 25.2 ± 5.4 µM.

For the compound `Cc1ccc(C(=O)/C=C2/C(=O)N(C)c3ccccc32)cc1` [Compound 9], in the data set on MCF-7 cells, the GI50 stood at 10.5 ± 0.8 µM and the CC50 was determined as 28.4 ± 0.8 µM. Besides, in the data set on HCT 116 cells, the LC50 (50% lethal concentration) was determined as 28.6 ± 0.8 µM and the GI50 was 10.5 ± 1.2 µM. The IC50 on recombinant rat TrxR [1] was found to be 21.6 ± 4.4 µM.

On to `CN1C(=O)/C(=C/C(=O)c2ccc(Cl)cc2)c2ccccc21` [Compound 15], for which, in the data set on MCF-7 cells, the GI50 is 20.9 ± 3 µM and the CC50 came out at 92 ± 1.2 µM. Moreover, in the data set on HCT 116 cells, the LC50 (50% lethal concentration) stood at 28.6 ± 1.4 µM and the GI50 was found to be 12.4 ± 2.8 µM. In addition, on recombinant rat TrxR [1], the IC50 came to 16.9 ± 3.4 µM.

With `CN1C(=O)/C(=C/C(=O)c2cccc(C(F)(F)F)c2)c2ccccc21` [Compound 17], in the data set with MCF-7 cells, the GI50 turned out to be 17.9 ± 0.4 µM and the CC50 was found to be 89.6 ± 3.6 µM. In addition, in the data set on HCT 116 cells, the LC50 (50% lethal concentration) was found to be 26.2 ± 2.1 µM and the GI50 came out at 16.1 ± 2.2 µM. The IC50 at recombinant rat TrxR [1] is 34.2 ± 18.2 µM.

Turning to `CN1C(=O)/C(=C/C(=O)c2ccc(C(F)(F)F)cc2)c2ccccc21` [Compound 18], in the data set on MCF-7 cells, the GI50 was 44.4 ± 0.1 µM and the CC50 is 89.8 ± 5.1 µM. Also, in the data set on HCT 116 cells, the LC50 (50% lethal concentration) came to 90.5 ± 7.3 µM and the GI50 came to 15.7 ± 1.7 µM. For the same compound, the IC50 at recombinant rat TrxR [1] was over 100 µM.

With `CN1C(=O)/C(=C/C(=O)c2ccc(F)cc2)c2ccccc21` [Compound 13], in the data set on MCF-7 cells, the GI50 worked out at 12.5 ± 2.4 µM and the CC50 turned out to be 28.6 ± 1.2 µM. In addition, in the data set with HCT 116 cells, the LC50 (50% lethal concentration) was found to be 29 ± 1.4 µM and the GI50 was found to be 11.9 ± 0.5 µM. Further, the IC50 at recombinant rat TrxR [1] was 18.7 ± 3.56 µM.
